Assay results taken from PMC9525273 (Nature Communications, 2022).
Values joined by “and” are separate entries in the source; they are usually repeats but may differ in a detail not shown here. Equal values may be shown once. Read-outs that look alike come from different tables or passages of the source.

Columns and labels:
[1] = tested on: extracellular T. gondii tachyzoites expressing TgATP4^G419S-HA; assay: [Na+]cyt measurement (SBFI), Na+ dysregulation; type: cell-based, Toxoplasma gondii; set-up: Final [Na+]cyt reached: unit not given here; conditions: TgATP4G419S-HA; for IC50: Toxoplasma gondii
Protocol: (§1) The ratio of the fluorescence intensity recorded at 340 nm and 380 nm (with an emission wavelength of 515 nm) was converted to [Na^+]cyt using a calibration procedure that entailed suspending parasites in solutions of varying [Na^+] containing ionophores. Fluorescence measurements and calibrations were performed at 37 °C, either with individual 1 mL suspensions using a PerkinElmer LS 50B fluorescence spectrometer (for resting [Na^+]cyt measurements for which the data are shown in Supplementary Fig. 7) or in 96-well plates using a Tecan Infinite M1000 PRO plate reader with i-control (version 1.12) software (all other [Na^+]cyt measurements).

[2] = tested on: extracellular T. gondii tachyzoites expressing TgATP4^WT; assay: [Na+]cyt measurement (SBFI), Na+ dysregulation; type: cell-based, Toxoplasma gondii; set-up: Final [Na+]cyt reached: unit not given here
Protocol: as §1

SMILES: N#Cc1cc(NC(=O)[C@H]2c3ccccc3C(=O)N(CC(F)(F)F)[C@@H]2c2cccnc2)ccc1F [(+)-SJ733]
- Final [Na+]cyt reached ([1]; [(+)-SJ733] 19.5 nM, MEAN): 11.4
- Final [Na+]cyt reached ([1]; [(+)-SJ733] 39.1 nM, MEAN): 14.1
- Final [Na+]cyt reached ([1]; [(+)-SJ733] 39.1 nM, single experiments): 15.8 and 12.1 and 14.4
- Final [Na+]cyt reached ([1]; [(+)-SJ733] 78.1 nM, MEAN): 14.7
- Final [Na+]cyt reached ([1]; [(+)-SJ733] 78.1 nM, single experiments): 18.4 and 12.6 and 13.2
- Final [Na+]cyt reached ([1]; [(+)-SJ733] 156.3 nM, MEAN): 13.7
- Final [Na+]cyt reached ([1]; [(+)-SJ733] 156.3 nM, single experiments): 14.7 and 11.2 and 15.2
- Final [Na+]cyt reached ([1]; [(+)-SJ733] 312.5 nM, MEAN): 13.9
- Final [Na+]cyt reached ([1]; [(+)-SJ733] 312.5 nM, single experiments): 15.6 and 11.4 and 14.7
- Final [Na+]cyt reached ([1]; [(+)-SJ733] 625 nM, MEAN): 13.0
- Final [Na+]cyt reached ([1]; [(+)-SJ733] 625 nM, single experiments): 14.4 and 12.2 and 12.5
- Final [Na+]cyt reached ([1]; [(+)-SJ733] 2500 nM, MEAN): 13.7
- Final [Na+]cyt reached ([1]; [(+)-SJ733] 2500 nM, single experiments): 15.4 and 12.6 and 13.0
- Final [Na+]cyt reached ([1]; [(+)-SJ733] 5000 nM, MEAN): 13.4
- Final [Na+]cyt reached ([1]; [(+)-SJ733] 5000 nM, single experiments): 14.6 and 12.4 and 13.1
- Final [Na+]cyt reached ([1]; [(+)-SJ733] 10000 nM, MEAN): 12.1
- Final [Na+]cyt reached ([1]; [(+)-SJ733] 10000 nM, single experiments): 13.0 and 11.9 and 11.5
- Final [Na+]cyt reached ([1]; [(+)-SJ733] 20000 nM, MEAN): 12.6
- Final [Na+]cyt reached ([1]; [(+)-SJ733] 20000 nM, single experiments): 13.7 and 11.8 and 12.3
- Final [Na+]cyt reached ([1]; [(+)-SJ733] 40000 nM, MEAN): 11.6
- Final [Na+]cyt reached ([1]; [(+)-SJ733] 40000 nM, single experiments): 12.7 and 10.4 and 11.7
- IC50 ([1]; 1.5 h, ~90 min exposure, 37 °C, pH 7.1, read-out: IC50 for Na+ dysregulation): > 40000 nM
- IC50 ([1]; MEAN, source data of Table 1 (nM there), read-out: IC50 for Na+ dysregulation, MEAN): > 40000 nM
- IC50 ([1]; single experiments, source data of Table 1 (nM there), read-out: IC50 for Na+ dysregulation): > 40000 nM
- IC50 ([2]; Toxoplasma gondii, 1.5 h, pH 7.1, WT T. gondii (TgATP4WT), ~90 min exposure, 37 °C, pH 7.1, mean ± SEM, read-out: IC50 for Na+ dysregulation): 5040 ± 572 nM
- IC50 ([2]; Toxoplasma gondii, WT T. gondii, MEAN, source data of Table 1 (nM there), read-out: IC50 for Na+ dysregulation, MEAN): 5040 nM
- IC50 ([2]; Toxoplasma gondii, WT T. gondii, single experiments, source data of Table 1 (nM there), read-out: IC50 for Na+ dysregulation): 4900 nM
- Final [Na+]cyt reached ([2]; WT T. gondii, [(+)-SJ733] 19.5 nM, MEAN): 11.8
- Final [Na+]cyt reached ([2]; WT T. gondii, [(+)-SJ733] 39.1 nM, MEAN): 11.7
- Final [Na+]cyt reached ([2]; WT T. gondii, [(+)-SJ733] 78.1 nM, MEAN): 12.4
- Final [Na+]cyt reached ([2]; WT T. gondii, [(+)-SJ733] 156.3 nM, MEAN): 13.8
- Final [Na+]cyt reached ([2]; WT T. gondii, [(+)-SJ733] 312.5 nM, MEAN): 15.1
- Final [Na+]cyt reached ([2]; WT T. gondii, [(+)-SJ733] 625 nM, MEAN): 18.3
- Final [Na+]cyt reached ([2]; WT T. gondii, [(+)-SJ733] 2500 nM, MEAN): 32.1
- Final [Na+]cyt reached ([2]; WT T. gondii, [(+)-SJ733] 2500 nM, single experiments): 21.7 and 37.9 and 34.1 and 34.6
- Final [Na+]cyt reached ([2]; WT T. gondii, [(+)-SJ733] 5000 nM, MEAN): 48.9
- Final [Na+]cyt reached ([2]; WT T. gondii, [(+)-SJ733] 5000 nM, single experiments): 41.9 and 51.4 and 51.0
- Final [Na+]cyt reached ([2]; WT T. gondii, [(+)-SJ733] 10000 nM, MEAN): 65.1
- Final [Na+]cyt reached ([2]; WT T. gondii, [(+)-SJ733] 10000 nM, single experiments): 65.8 and 64.6 and 71.3 and 58.7
- Final [Na+]cyt reached ([2]; WT T. gondii, [(+)-SJ733] 20000 nM, MEAN): 76.4
- Final [Na+]cyt reached ([2]; WT T. gondii, [(+)-SJ733] 20000 nM, single experiments): 74.3 and 76.4 and 85.9 and 69.1
- Final [Na+]cyt reached ([2]; WT T. gondii, [(+)-SJ733] 40000 nM, MEAN): 81.2
- Final [Na+]cyt reached ([2]; WT T. gondii, [(+)-SJ733] 40000 nM, single experiments): 81.0 and 95.3 and 67.2
- IC50 ([2]; WT T. gondii, single experiments, source data of Table 1 (nM there), read-out: IC50 for Na+ dysregulation): 4780 nM and 6620 nM and 3880 nM
